Assay results published in article PMC8397297 (ACS Chemical Neuroscience, 2021).

Legend:
[1] = tested on: HepG2 cells; test: HepG2 hepatoma cell-based hepatotoxicity assay (MTS); conditions: 72 h of incubation
Procedure: (§1) To investigate the safety of compounds 2RS,4RS-39c, 50a, and 56a, a HepG2 hepatoma cell-based hepatotoxicity assay was used. Compounds were tested at six concentrations (0.1–100 μM).
(§2) Hepatotoxicity and cytotoxicity were estimated according to previously described protocols[62] using the hepatoma HepG2 (ATCC HB-8065) and human embryonic kidney HEK-293 (ATCC CRL1573) cell lines, respectively. In brief, cells were seeded in 96-well plates at a density of 0.7 × 10^4 and cultured at 37 °C in an atmosphere containing 5% CO2. Next, the compounds were added and investigated in quadruplicate at concentrations ranging from 0.1 to 100 μM for 72 h. The antiproliferative drug DX was used as the reference. The CellTiter 96 AQueous nonradioactive cell proliferation assay (MTS) purchased from Promega (Madison, WI, USA) was used for the determination of cell viability. The absorbance at 492 nm was measured using an EnSpire microplate reader (PerkinElmer, Waltham, MA, USA).

[2] = as above; conditions: human, HepG2 hepatoma cells; 25 μM, 72 h, control 1% DMSO in culture media; read-out: HepG2 cell viability compared to the control
Procedure: as §1, §2

Structure (SMILES)	concentration with statistically significant (p < 0.0001) decrease in HepG2 cell viability ([1]; tested 0.1–100 μM) [µM]	viability at 72 h, 25 µM [2] [%]	hepatotoxicity in HepG2 cells ([1]; concentrations up to 25 μM)
Cc1ccc(CNC(=O)[C@@H](C[C@@H](C)O)N(C)CCC=C2c3ccccc3CCc3ccccc32)cc1 (relative stereo) [Compound 2RS,4RS-39c, 2-((3-(10,11-Dihydro-5H-dibenzo[a,d][7]annulen-5-ylidene)propyl)(methyl)amino)-4-hydroxy-N-(4-methylbenzyl)pentanamide]	25		
CN(CCC=C1c2ccccc2CCc2ccccc21)C(CO)C(=O)NCc1ccccc1 (stereo not drawn) [Compound 56a, N-Benzyl-2-((3-(10,11-dihydro-5H-dibenzo[a,d][7]annulen-5-ylidene)propyl)(methyl)amino)-3-hydroxypropanamide]		100	did not induce significant hepatotoxicity
